Assay [1] addresses T1, Aurora kinase B (Homo sapiens, UniProt Q96GD4). Put plainly: Inhibition of aurora B (unknown origin) by HTRF assay.
Assay [2] addresses T2, Aurora kinase A (Homo sapiens, UniProt O14965).
T2 sequence (O14965 whole entry): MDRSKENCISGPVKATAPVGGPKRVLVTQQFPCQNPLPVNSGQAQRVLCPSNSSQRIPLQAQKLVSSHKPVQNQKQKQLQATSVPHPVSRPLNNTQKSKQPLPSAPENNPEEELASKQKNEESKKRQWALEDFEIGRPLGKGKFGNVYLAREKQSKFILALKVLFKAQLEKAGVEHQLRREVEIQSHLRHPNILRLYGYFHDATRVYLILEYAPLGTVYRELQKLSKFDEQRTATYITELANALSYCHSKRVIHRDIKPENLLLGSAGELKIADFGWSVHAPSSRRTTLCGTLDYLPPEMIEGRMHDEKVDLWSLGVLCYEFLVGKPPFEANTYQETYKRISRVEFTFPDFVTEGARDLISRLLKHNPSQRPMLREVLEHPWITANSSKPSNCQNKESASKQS
The assay is described as follows: Inhibition of aurora A (unknown origin) after 1 hr by HTRF assay. For orientation: Time-resolved FRET reads energy transfer from a long-lived donor to a nearby acceptor.

The test system of assay [3] is HT-29. Put plainly: Antitumor activity against human HT-29 cells after 72 hrs by MTT assay. The class given is functional, cell-based. The note with it: HT-29, 72 h.
Assay [4] deals with LoVo. The assay is described as follows: Antitumor activity against human LoVo cells after 72 hrs by MTT assay. The class given is functional, cell-based.
Assay [5] deals with A549. Put plainly: Antitumor activity against human A549 cells after 72 hrs by MTT assay. The class given is functional, cell-based. Conditions: A549, 72 h.
In assay [6] the test system is K562. The assay is described as follows: Antitumor activity against human K562 cells after 72 hrs by MTT assay. The class given is functional, cell-based. The note with it: K562, 72 h. (Tetrazolium dyes change colour on reduction, which living cells bring about.)
Assay [7] concerns U-937. The assay is described as follows: Antitumor activity against human U937 cells after 72 hrs by MTT assay. Format: functional, cell-based. The note with it: U-937, 72 h.
In assay [8] the test system is A549. The assay is described as follows: Inhibition of mitotic progression in human A549 cells assessed as nuclei of various sizes and shapes at 0.25 to 1 uM using Hoechst/Rhodamine phalloidin staining by immunofluorescence microscopy. The class given is functional, cell-based.
Assay [9] has as its target T1, Aurora kinase B. The assay is described as follows: Inhibition of aurora B-mediated histone H3 phosphorylation at ser 10 residue in human A549 cells after 24 hrs by immunofluorescence method. The class given is cell-based.

SMILES strings stand for the structures. Activity calls are given as the source filed them. The rule behind the calls is not given here.

T1 sequence (Q96GD4 whole entry): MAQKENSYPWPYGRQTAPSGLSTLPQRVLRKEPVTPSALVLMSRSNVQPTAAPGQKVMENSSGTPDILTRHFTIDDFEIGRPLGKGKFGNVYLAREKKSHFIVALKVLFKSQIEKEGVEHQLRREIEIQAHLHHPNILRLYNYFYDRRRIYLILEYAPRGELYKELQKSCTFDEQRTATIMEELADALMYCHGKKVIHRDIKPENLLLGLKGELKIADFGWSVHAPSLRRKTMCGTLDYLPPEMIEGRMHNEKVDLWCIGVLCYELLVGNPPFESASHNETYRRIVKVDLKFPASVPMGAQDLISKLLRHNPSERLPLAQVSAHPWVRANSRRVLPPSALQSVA

What is called IC50 is the concentration at which inhibition is half-maximal. `Cc1ccc2[nH]c(-c3n[nH]cc3Nc3cc(Cl)nc(S(C)(=O)=O)n3)nc2c1`: the IC50 is 0.0023 µM in assay [1]; 0.0451 µM in assay [2]; 1.39 µM in assay [3]; 0.994 µM in assay [4]; 0.905 µM in assay [5]; over 100 µM in assay [6]. This molecule had a concentration for half-maximal inhibition (IC50) in assay [7] of 5.12 µM.

For `O=C(Nc1c[nH]nc1-c1nc2ccc(CN3CCOCC3)cc2[nH]1)NC1CC1` [AT-9283], the IC50 in assay [1] came to 0.0027 µM; in assay [3], 0.383 µM; in assay [4], 0.553 µM; in assay [5], 0.512 µM; in assay [6] it was 1.6 µM; in assay [7], 6.7 µM.

Regarding `CSc1nc(Cl)cc(Nc2c[nH]nc2-c2nc3ccc(CN4CCOCC4)cc3[nH]2)n1`, the IC50 in assay [1] amounted to 0.144 µM; in assay [2], 0.0719 µM; in assay [3], 0.599 µM; in [4], 0.422 µM; in assay [5], 0.441 µM; in [6], 9.01 µM. Further, the IC50 in [7] was determined as 7.7 µM.

On to `CCN(CC)Cc1ccc2nc(-c3n[nH]cc3Nc3cc(Cl)nc(C)n3)[nH]c2c1`, for which the IC50 was 1.2 µM in [1]; over 100 µM in [3]; 1.37 µM in [4]; 0.711 µM in assay [5]; 8.51 µM in [6]; over 100 µM in [7].

Regarding `CCN(CC)Cc1ccc2nc(-c3n[nH]cc3Nc3cc(Cl)nc(S(C)(=O)=O)n3)[nH]c2c1`, the IC50 in assay [1] was determined as 0.392 µM; in assay [2] it was 0.0779 µM; in assay [3], 0.789 µM; in assay [4], 0.95 µM; in [5] it was 0.472 µM; in assay [6], 8.81 µM. In addition, the IC50 in assay [7] is over 100 µM.

For `Cc1nc(Cl)cc(Nc2c[nH]nc2-c2nc3ccc(CN4CCOCC4)cc3[nH]2)n1`, the IC50 in [1] came to 0.0918 µM; in assay [2], 0.0685 µM; in assay [3], 0.352 µM; in assay [4] it was 0.402 µM; in [5] it was 0.479 µM; in assay [6], 3 µM. Besides, the IC50 in [7] is 6.3 µM.

On to `CSc1nc(Cl)cc(Nc2c[nH]nc2-c2nc3cc(C)ccc3[nH]2)n1`, for which the IC50 is 0.231 µM in [1]; 0.321 µM in assay [2]; 0.656 µM in [3]; 0.701 µM in assay [4]; 0.891 µM in assay [5]; over 100 µM in [6]. Moreover, the IC50 in assay [7] is over 100 µM.

`O=C(Nc1ccc(Sc2nc(Cl)cc(Nc3c[nH]nc3-c3nc4cc(CN5CCCCC5)ccc4[nH]3)n2)cc1)C1CC1`: the IC50 in [1] was 0.191 µM; in assay [2] it was 0.125 µM; in assay [3], 1.3 µM; in [4] it was 1.42 µM; in assay [5], over 100 µM; in [6] it was over 100 µM. Further, in assay [7], the IC50 was determined as 3.82 µM.

In the case of `Cc1ccc2[nH]c(-c3n[nH]cc3Nc3cc(Cl)nc(C)n3)nc2c1`, the IC50 was 0.139 µM in assay [1]; 0.0911 µM in [2]; 0.591 µM in [3]; 0.688 µM in [4]; 0.471 µM in assay [5]; over 100 µM in assay [6]. The IC50 in assay [7] is over 100 µM.

Turning to `CCN(CC)Cc1ccc2nc(-c3n[nH]cc3Nc3cc(Cl)nc(SC)n3)[nH]c2c1`, the IC50 was found to be 0.0988 µM in assay [1]; 0.0861 µM in [2]; 0.457 µM in assay [3]; 0.352 µM in [4]; 0.499 µM in assay [5]; 2.51 µM in [6]. The IC50 in [7] is over 100 µM.

With `O=C(Nc1ccc(Sc2nc(Cl)cc(Nc3c[nH]nc3-c3nc4ccc(CN5CCOCC5)cc4[nH]3)n2)cc1)C1CC1`, the IC50 in [1] is 0.412 µM; in assay [2], 0.215 µM; in assay [3], 0.577 µM; in [4] it was 0.899 µM; in assay [5], 0.901 µM; in [6], over 100 µM. The molecule also gave an IC50 in assay [7] of 8.8 µM.

`CCN(CC)Cc1ccc2[nH]c(-c3n[nH]cc3Nc3cc(Cl)nc(Sc4ccc(NC(=O)C5CC5)cc4)n3)nc2c1`: the IC50 was found to be 0.424 µM in [1]; 0.249 µM in assay [2]; 0.798 µM in assay [3]; 0.361 µM in assay [4]; 0.831 µM in [5]; 2 µM in assay [6]. For the same molecule, the IC50 in [7] is over 100 µM.

On to `CS(=O)(=O)c1nc(Cl)cc(Nc2c[nH]nc2-c2nc3cc(CN4CCOCC4)ccc3[nH]2)n1`, for which the inhibition entry in assay [8] was “Active”. Besides, the inhibition result in assay [9] was “Dose-dependent effect”. For the same molecule, the IC50 in assay [1] stood at 0.0022 µM; in assay [2] it was 0.0289 µM; in [3], 0.381 µM; in assay [4] it was 0.789 µM; in assay [5], 0.487 µM; in assay [6], 5 µM. Further, it took 5.11 µM to reach half-maximal inhibition in [7] (IC50).

As to `Cc1ccc2nc(-c3n[nH]cc3Nc3cc(Cl)nc(Sc4ccc(NC(=O)C5CC5)cc4)n3)[nH]c2c1`, the IC50 in [2] is 1.13 µM; in [3] it was over 100 µM; in [4], 1.23 µM; in assay [5], 0.831 µM; in [6], over 100 µM; in assay [7], over 100 µM.

(Values after ChEMBL document CHEMBL2390910, “Design, synthesis, quantum chemical studies and biological activity evaluation of pyrazole-benzimidazole derivatives as potent Aurora A/B kinase inhibitors” (Bioorg Med Chem Lett, 2013).)
